pEC50, pIC50, pKi: −log10 of the molar value.
Assays:
Tyrosinase [1] = biological target: T1, Tyrosinase (Agaricus bisporus, UniProt O42713); assay: Inhibition of mushroom tyrosinase using L-DOPA as substrate incubated for 5 mins
T1 sequence (O42713 whole entry): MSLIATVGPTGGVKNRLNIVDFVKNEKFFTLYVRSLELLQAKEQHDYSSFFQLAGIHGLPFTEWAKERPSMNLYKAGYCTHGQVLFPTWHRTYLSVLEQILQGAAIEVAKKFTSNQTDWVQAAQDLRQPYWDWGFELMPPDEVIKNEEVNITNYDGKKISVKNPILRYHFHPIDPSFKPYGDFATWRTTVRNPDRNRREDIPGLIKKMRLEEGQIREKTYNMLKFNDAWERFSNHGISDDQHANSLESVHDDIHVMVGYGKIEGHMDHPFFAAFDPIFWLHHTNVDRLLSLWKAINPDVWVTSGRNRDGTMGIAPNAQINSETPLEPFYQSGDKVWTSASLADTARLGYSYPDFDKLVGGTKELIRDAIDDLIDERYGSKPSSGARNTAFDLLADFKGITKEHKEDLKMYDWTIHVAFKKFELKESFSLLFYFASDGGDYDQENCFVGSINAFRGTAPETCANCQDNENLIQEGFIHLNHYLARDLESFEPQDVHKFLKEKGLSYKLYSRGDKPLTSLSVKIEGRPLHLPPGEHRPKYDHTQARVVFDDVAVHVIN

Tyrosinase [2] = biological target: T1, Tyrosinase; assay: Inhibition of mushroom tyrosinase using L-dopa as substrate incubated for 30 mins by spectrophotometric analysis
Tyrosinase [3] = biological target: T1, Tyrosinase; assay: Inhibition of mushroom tyrosinase using L-dopa as substrate assessed as inhibition constant incubated for 30 mins by spectrophotometric analysis
Mushroom tyrosinase [4] = biological target: T2, Mushroom tyrosinase (Agaricus bisporus, UniProt O42713+Q00024+C7FF04+C7FF05); assay: Inhibition of mushroom monophenolase
Mushroom tyrosinase [5] = biological target: T2, Mushroom tyrosinase; assay: Inhibition of mushroom diphenolase
Tyrosinase [6] = biological target: T1, Tyrosinase; assay: Inhibition of mushroom tyrosinase using L-DOPA as substrate incubated for 20 mins by microplate reader analysis
Tyrosinase [7] = biological target: T1, Tyrosinase; assay: Inhibition of mushroom tyrosinase using L-DOPA as a substrate assessed as inhibition constant incubated for 5 mins by microplate reader analysis
Tyrosinase [8] = biological target: T1, Tyrosinase; assay: Inhibition of mushroom tyrosinase using L-DOPA as substrate preincubated for 10 mins followed by substrate addition measured after 20 mins by microtitre plate analysis
Tyrosinase [9] = biological target: T1, Tyrosinase; assay: Inhibition of mushroom tyrosinase using L-DOPA as substrate incubated for 10 mins
Tyrosinase [10] = biological target: T1, Tyrosinase; assay: Inhibition of mushroom tyrosinase using L-DOPA as substrate incubated for 20 mins
Tyrosinase [11] = biological target: T1, Tyrosinase; assay: Inhibition of mushroom tyrosinase using L-DOPA as substrate assessed as monophenolase activity incubated for 20 mins by microplate reader analysis
Tyrosinase [12] = biological target: T1, Tyrosinase; assay: Inhibition of mushroom tyrosinase using L-tyrosine as substrate assessed as […] activity incubated for 20 mins by microplate reader analysis
[13] = Antioxidant activity assessed as DPPH radical scavenging activity incubated for 30 mins under dark condition; assay type: functional
Tyrosinase [14] = biological target: T1, Tyrosinase; assay: Inhibition of mushroom tyrosinase using L-dopa as substrate incubated for 30 mins by microplate reader analysis
Tyrosinase [15] = biological target: T1, Tyrosinase; assay: Inhibition of mushroom tyrosinase using L-dopa as substrate assessed as monophenolase activity incubated for 30 mins by spectrophotometric method
Tyrosinase [16] = biological target: T1, Tyrosinase; assay: Inhibition of mushroom tyrosinase using L-dopa as substrate assessed as diphenolase activity incubated for 30 mins by spectrophotometric method
Tyrosinase [17] = biological target: T1, Tyrosinase; assay: Inhibition of mushroom tyrosinase using L-DOPA as substrate preincubated for 10 mins followed by substrate addition measured after 20 mins by microtitre plate reader analysis
Tyrosinase [18] = biological target: T1, Tyrosinase; assay: Inhibition of mushroom tyrosinase using L-DOPA as substrate assessed as inhibition constant preincubated with compound for 15 mins by microplate reader analysis
Tyrosinase [19] = biological target: T1, Tyrosinase; assay: Inhibition of mushroom tyrosinase using L-DOPA as substrate preincubated with compound for 15 mins by microplate reader analysis
Tyrosinase [20] = biological target: T3, Tyrosinase (Homo sapiens, UniProt P14679); assay: Inhibition of human his tagged tyrosinase expressed in HEK293 cells using L-DOPA as substrate incubated for 10 mins by microtitre plate reader analysis; assay type: cell-based
T3 sequence (P14679 whole entry): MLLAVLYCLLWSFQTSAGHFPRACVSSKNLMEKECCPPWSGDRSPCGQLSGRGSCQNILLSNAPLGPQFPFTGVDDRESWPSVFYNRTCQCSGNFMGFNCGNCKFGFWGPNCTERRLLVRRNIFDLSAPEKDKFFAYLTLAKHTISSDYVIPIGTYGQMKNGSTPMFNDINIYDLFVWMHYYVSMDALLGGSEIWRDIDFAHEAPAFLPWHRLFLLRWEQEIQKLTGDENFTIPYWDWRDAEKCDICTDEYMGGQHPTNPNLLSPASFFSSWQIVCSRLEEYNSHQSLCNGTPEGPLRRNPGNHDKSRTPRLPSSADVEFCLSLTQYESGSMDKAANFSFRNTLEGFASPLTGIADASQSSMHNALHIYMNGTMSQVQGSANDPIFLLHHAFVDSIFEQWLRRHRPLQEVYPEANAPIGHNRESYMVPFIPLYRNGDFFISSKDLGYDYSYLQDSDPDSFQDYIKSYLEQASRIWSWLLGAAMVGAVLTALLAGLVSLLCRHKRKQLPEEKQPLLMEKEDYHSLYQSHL

B16 = assay: Anti-melanoma activity against mouse B16 cells assessed as inhibition of tyrosinase activity incubated for 48 hrs by spectrophotometer analysis relative to control; assay type: functional
Tyrosinase [21] = biological target: T1, Tyrosinase; assay: Inhibition of mushroom tyrosinase using L-tyrosine as substrate preincubated for 15 mins followed by substrate addition measured after 30 mins by plate reader analysis

Molecule OC[C@H]1O[C@H](Oc2cc(O)cc(CCc3ccc(O)cc3O)c2)[C@H](O)[C@@H](O)[C@@H]1O has a pIC50 (Tyrosinase [1]) of 5.58.
Work on O=C1/C(=C/c2ccc(O)cc2O)Cc2ccccc21 yielded a pIC50 (Tyrosinase [2]) of 5.86 and a pKi (Tyrosinase [3]) of 5.62.
In the case of CCN(CC)c1ccc(Nc2nc(-c3ccc(O)cc3O)cs2)cc1, the IC50 (Mushroom tyrosinase [4]) was 6200 nM and the IC50 (Mushroom tyrosinase [5]) was 10300 nM.
Molecule Oc1ccc(/C=N\n2c(Cc3ccccc3F)n[nH]c2=S)cc1 has a pIC50 (Tyrosinase [6]) of 5.21.
For CC1(C)CC(=O)C2=C(C1)Oc1c(oc(CCl)cc1=O)C2c1ccc(F)cc1 (stereo not given), the pKi (Tyrosinase [7]) was 5.40.
OC[C@H]1O[C@H](Oc2cc(CCc3ccc(O)cc3O)cc(O[C@H]3O[C@H](CO)[C@@H](O)[C@H](O)[C@H]3O)c2)[C@H](O)[C@@H](O)[C@@H]1O gave a pIC50 (Tyrosinase [1]) of 4.89.
Work on Cc1ccc(C(C)C)cc1NC(=O)COC(=O)/C=C/c1ccc(O)cc1O yielded a pIC50 (Tyrosinase [8]) of 6.82.
COc1cc(/C=C/C(=O)c2ccc(OC)c(OC)c2)ccc1O showed a pIC50 (Tyrosinase [9]) of 7.42.
For CCOc1cc(/C=N/NC(=O)c2ccc(O)c(OC)c2)ccc1O, the pIC50 (Tyrosinase [10]) was 5.80.
In the case of O=C(/C=C/c1ccc(O)cc1O)c1cccs1, the pIC50 (Tyrosinase [11]) was 6.03 and the pIC50 (Tyrosinase [12]) was 7.89.
Nn1c(S)nnc1N/N=C\c1ccccc1O showed a pIC50 (Tyrosinase [6]) of 5.82.
For CCOC(=O)C1=C(N)Oc2c(ccc3ccccc23)C1c1ccc(N(C)C)cc1 (stereo not given), the EC50 [13] was 0.94 mM/L.
Molecule O=C1N=C(Nc2nc3ccccc3s2)S/C1=C\c1ccc(O)cc1O has a pIC50 (Tyrosinase [14]) of 5.74.
COc1cc(CC2C(=O)Nc3ccccc32)ccc1O (stereo not given) showed a pIC50 (Tyrosinase [15]) of 4.20 and a pIC50 (Tyrosinase [16]) of 4.22.
For O=C1OC(c2ccccc2Br)=NC(=S)C1c1nn[nH]n1 (stereo not given), the pIC50 (Tyrosinase [17]) was greater than 7.00.
For Cc1ccc(NC(=O)CCCN2CCN(C/C=C/c3ccccc3)CC2)c(C)c1, the pIC50 (Tyrosinase [17]) was greater than 7.00.
COc1cccc2c1c(C(=O)C(=O)Nc1cc[nH]n1)cn2Cc1ccc(F)cc1 showed a pIC50 (Tyrosinase [9]) of 3.65.
With O=P(O)(c1ccccc1)C(NCc1ccccc1)c1ccccn1 (stereo not given) the pKi (Tyrosinase [18]) was 4.12 and the pIC50 (Tyrosinase [19]) was 3.51.
Molecule COc1ccccc1-n1c(SCC(=O)Nc2ccc(Br)cc2)nnc1-c1ccccc1 has a pIC50 (Tyrosinase [17]) greater than 7.00.
For COc1cc(/C=C/C(=O)c2cc(OC)c(OC)c(-c3cc(C(=O)/C=C/c4ccc(O)c(OC)c4)cc(OC)c3OC)c2)ccc1O, the pIC50 (Tyrosinase [9]) was 7.66.
Work on Nc1nc(-c2ccc(O)cc2O)cs1 yielded a pEC50 (Tyrosinase [20]) of 3.61.
Molecule Nc1ccccc1C(=O)O [ANTHRANILIC ACID] has an IC50 (Mushroom tyrosinase [4]) of 5150 nM and an IC50 (Mushroom tyrosinase [5]) of 4720 nM.
With OC[C@H]1O[C@@H](Oc2ccc(O)cc2)[C@H](O)[C@@H](O)[C@@H]1O [ARBUTIN] the “inhibition (INH)” value (B16) was 55.4%.
Work on O=C(O)/C=C/c1ccc(O)cc1 [COUMARIC ACID] yielded a pIC50 (Tyrosinase [21]) of 3.53.

— ChEMBL document CHEMBL5241093, “Recent advances in the design and discovery of synthetic tyrosinase inhibitors” (Eur J Med Chem, 2021)
